US20020123648A1, “Aqueous stable lysine solution” (AJINOMOTO CO., INC., priority 1999, published 2002)

What was measured:
[1] = Solubility of lysine: suspension stirred 1 week at constant temperature, lysine analysed in supernatant; assay type: physicochemical; conditions: 20° C.; chloride ions at a molar ratio of 27% or less to the lysine (hydrochloric acid)
Description: 70% lysine base solution obtained under (1) above, 35% hydrochloric acid and deionized water were used in the amounts shown in Table 1 below, respectively, to prepare 7 kinds of solutions. In these solutions, the lysine base crystals obtained under (2) above and the lysine hydrochloride.2H2O crystals obtained under (3) above were suspended respectively in the amounts shown in the same table, and then stirred for 1 week during which the temperature was kept at 20° C.
The crystals were removed from these suspensions, and the concentration of the chloride ions in each of the remaining solutions was analyzed by an ion chromatographic analyzer “Yokokawa IC7000 model”, and the concentration of lysine therein was analyzed by an amino acid analyzer “Hitachi L-8500 model”. […]
The crystals were removed from these suspensions, and the concentration of the chloride ions in each of the resulting solutions (supernatants) was analyzed by the ion chromatographic analyzer “Yokokawa IC7000 model”, and the concentration of the lysine therein was analyzed by the amino acid analyzer “Hitachi L-8500 model”. […]

[2] = storage at 50° C. for 6 weeks; cited from earlier work
[3] = used in the same molar amount; cited from earlier work

SMILES: NCCCC[C@H](N)C(=O)O [lysine]
- solubility of lysine compared with the case where the chloride ions are not contained (FIG. 1) [1]: increased

SMILES: NCCCC[C@H](N)C(=O)O [crystalline L-lysine, L-lysine]
- coloration after storage [2]: evidently colored
- formation of by-products after storage [2]: confirmed

SMILES: Cl.NCCCC[C@H](N)C(=O)O [L-lysine monohydrochloride]
- action in a feeding experiment [3]: same action
